Data published in the supplement of paper PMC11003180.

Legend:
Assay in all cases: drug sensitivity score (DSS) from 5-dose viability curve (DSS (area-based score, 0 = no response)); higher = more sensitive (stronger viability inhibition); extreme values may be limits of the assay
[1] = test system: MDCK wild-type + doxycycline; settings: doxycycline: 10 ng/mL; 72 h
Summary of the method: (§1)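 Pre-spotted 384-well plates held 528 oncology drugs, each at five doses from 1 to 10,000 nM. Parental and doxycycline-inducible MDCK cells, exposed beforehand to 10 ng/mL doxycycline in the medium, were added at 2000 cells/well and incubated 72 h at 37 °C. Viability came from CellTiter-Glo luminescence normalized per plate to vehicle and positive controls, and the Breeze pipeline fitted dose-response curves to give drug sensitivity scores.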

[2] = test system: MDCK p60AmotL2-inducible + doxycycline (p60AmotL2 expressing); settings: doxycycline: 10 ng/mL; 72 h
Summary of the method: as §1

[3] = test system: MDCK wild-type - doxycycline; settings: doxycycline: none; 72 h
Summary of the method: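 Parental MDCK cells, grown without doxycycline, were seeded at 2000 cells/well into 384-well plates pre-spotted with an oncology library of 528 drugs at five doses (1-10,000 nM). After 72 h at 37 °C, CellTiter-Glo luminescence was read. Viability was scaled per plate between vehicle and positive controls, and drug sensitivity scores were derived from dose-response curve fits in the Breeze pipeline.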

`Cc1c(N)nc([C@H](CC(N)=O)NC[C@H](N)C(N)=O)nc1C(=O)N[C@H](C(=O)N[C@H](C)[C@@H](O)[C@H](C)C(=O)N[C@H](C(=O)NCCc1nc(-c2nc(C(=O)NCCC[S+](C)C)cs2)cs1)[C@@H](C)O)[C@@H](OC1OC(CO)C(O)C(O)C1OC1OC(CO)C(O)C(OC(N)=O)C1O)c1cnc[nH]1` (stereo not given in full) [Bleomycin] was tested, and the drug sensitivity score [1] was 0, the drug sensitivity score [2] was 0.6 and the drug sensitivity score [3] was 0.

`COc1nc(N)nc2c1ncn2[C@@H]1O[C@H](CO)[C@@H](O)[C@@H]1O` [Nelarabine] was tested, and the drug sensitivity score [1] was 0, the drug sensitivity score [2] was 0 and the drug sensitivity score [3] was 0.

For `Nc1cccc2c1C(=O)N(C1CCC(=O)NC1=O)C2=O` (stereo not given) [Pomalidomide], the drug sensitivity score [1] was 0, the drug sensitivity score [2] was 0 and the drug sensitivity score [3] was 0.

With `CCCC(CCC)C(=O)O` [Valproic acid] the drug sensitivity score [1] was 0, the drug sensitivity score [2] was 0 and the drug sensitivity score [3] was 0.

`C=C(c1ccc(C(=O)O)cc1)c1cc2c(cc1C)C(C)(C)CCC2(C)C` [Bexarotene] was tested, and the drug sensitivity score [1] was 0, the drug sensitivity score [2] was 0 and the drug sensitivity score [3] was 0.2.

For `CCc1c(C(=O)C(N)=O)c2c(OCC(=O)O)cccc2n1Cc1ccccc1` [Varespladib], the drug sensitivity score [1] was 0, the drug sensitivity score [2] was 0 and the drug sensitivity score [3] was 0.

Work on `COc1cc([C@@H]2c3cc4c(cc3[C@@H](O[C@@H]3O[C@@H]5CO[C@@H](c6cccs6)O[C@H]5[C@H](O)[C@H]3O)[C@H]3COC(=O)[C@H]23)OCO4)cc(OC)c1O` [Teniposide] yielded a drug sensitivity score [1] of 1.5, a drug sensitivity score [2] of 2.7 and a drug sensitivity score [3] of 0.9.

`CC[C@H](C)C(=O)O[C@H]1C[C@H](O)C=C2C=C[C@H](C)[C@H](CC[C@@H](O)C[C@@H](O)CC(=O)O)[C@H]21` [Pravastatin] showed a drug sensitivity score [1] of 0, a drug sensitivity score [2] of 0 and a drug sensitivity score [3] of 0.

Work on `C[C@H]1CN(C2COC2)CCN1c1ccc(Nc2cc(-c3ccnc(N4CCn5c(cc6c5CC(C)(C)C6)C4=O)c3CO)cn(C)c2=O)nc1` [GDC-0853] yielded a drug sensitivity score [1] of 0, a drug sensitivity score [2] of 0 and a drug sensitivity score [3] of 0.

`N#CCNC(=O)c1ccc(-c2ccnc(Nc3ccc(N4CCOCC4)cc3)n2)cc1` [Momelotinib] showed a drug sensitivity score [1] of 2.7, a drug sensitivity score [2] of 3.3 and a drug sensitivity score [3] of 3.7.

Compound `N#Cc1ccc(C(c2ccc(C#N)cc2)n2cncn2)cc1` [Letrozole] has a drug sensitivity score [1] of 0, a drug sensitivity score [2] of 0 and a drug sensitivity score [3] of 0.

For `CC(C)Oc1ccc(-c2nn([C@@H](C)c3oc4ccc(F)cc4c(=O)c3-c3cccc(F)c3)c3ncnc(N)c23)cc1F` [TGR-1202], the drug sensitivity score [1] was 2.1, the drug sensitivity score [2] was 3.9 and the drug sensitivity score [3] was 0.

`O=C(Nc1cc(Cl)cc2c1[nH]c1cnccc12)c1cccnc1` [PS-1145] was tested, and the drug sensitivity score [1] was 0, the drug sensitivity score [2] was 0 and the drug sensitivity score [3] was 0.

`C=C1C[C@@H]2CC[C@@]34C[C@H]5O[C@H]6[C@@H](O3)[C@H]3O[C@H](CC[C@@H]3O[C@H]6[C@H]5O4)CC(=O)C[C@@H]3[C@@H](OC)[C@@H](C[C@H](O)CN)O[C@H]3C[C@H]3O[C@@H](CC[C@@H]1O2)C[C@@H](C)C3=C` [Eribulin] was tested, and the drug sensitivity score [1] was 22.5, the drug sensitivity score [2] was 23.4 and the drug sensitivity score [3] was 17.3.

Work on `NC(=O)c1cccc2cn(-c3ccc([C@@H]4CCCNC4)cc3)nc12` [Niraparib] yielded a drug sensitivity score [1] of 2.3, a drug sensitivity score [2] of 2.1 and a drug sensitivity score [3] of 0.7.

`COCCOc1cnc2ccn([C@H](C)c3nnc4c(F)cc(-c5cnn(C)c5)cn34)c(=O)c2c1` [AMG-337] gave a drug sensitivity score [1] of 0, a drug sensitivity score [2] of 0 and a drug sensitivity score [3] of 0.

With `O=C(NC[C@H](O)CN1CCc2ccccc2C1)c1cc(NC2COC2)ncn1` the drug sensitivity score [1] was 0, the drug sensitivity score [2] was 0.2 and the drug sensitivity score [3] was 0.

`C[C@]12CC[C@@H]3c4ccc(O)cc4C[C@@H](CCCCCCCCC[S+]([O-])CCCC(F)(F)C(F)(F)F)[C@H]3[C@@H]1CC[C@@H]2O` (stereo not given in full) [Fulvestrant] was tested, and the drug sensitivity score [1] was 0, the drug sensitivity score [2] was 0 and the drug sensitivity score [3] was 0.

`O=C(NOC[C@H](O)CO)c1ccc(F)c(F)c1Nc1ccc(I)cc1F` showed a drug sensitivity score [1] of 3.9, a drug sensitivity score [2] of 11.9 and a drug sensitivity score [3] of 2.3.

`CN(C)c1cc2c(cc1Sc1nc3c(N)nccc3n1CCNCC(C)(C)C)OCO2` [CUDC-305] was tested, and the drug sensitivity score [1] was 17, the drug sensitivity score [2] was 18 and the drug sensitivity score [3] was 17.7.

Work on `CNc1nc(Nc2cn(C(C)(C)C#N)nc2C)ncc1C(F)(F)F` [GNE-0877] yielded a drug sensitivity score [1] of 0, a drug sensitivity score [2] of 0 and a drug sensitivity score [3] of 0.

`COc1cc(Nc2c(C#N)cnc3cc(OCCCN4CCN(C)CC4)c(OC)cc23)c(Cl)cc1Cl` [Bosutinib] gave a drug sensitivity score [1] of 10.4, a drug sensitivity score [2] of 14.1 and a drug sensitivity score [3] of 7.5.

`O=C(Nc1cccc(Nc2ncc(Br)c(NCCc3cnc[nH]3)n2)c1)N1CCCC1` [BX-912] was tested, and the drug sensitivity score [1] was 0.8, the drug sensitivity score [2] was 4.1 and the drug sensitivity score [3] was 0.1.

Work on `O=C(O)CNC(=O)c1c(O)c2ccccc2n(Cc2ccccc2)c1=O` [IOX-2] yielded a drug sensitivity score [1] of 0, a drug sensitivity score [2] of 0 and a drug sensitivity score [3] of 0.

Work on `CC(C)(C)c1nc(-c2cccc(NS(=O)(=O)c3c(F)cccc3F)c2F)c(-c2ccnc(N)n2)s1` [Dabrafenib] yielded a drug sensitivity score [1] of 0, a drug sensitivity score [2] of 0 and a drug sensitivity score [3] of 0.

`CN(C(=O)c1ccc(F)cc1C(F)(F)F)C1CCN(c2nnc(-c3ccnn3C)c3ccccc23)CC1` [Taladegib] was tested, and the drug sensitivity score [1] was 0, the drug sensitivity score [2] was 0 and the drug sensitivity score [3] was 0.

Compound `COC(=O)c1ccc2c(c1)NC(=O)/C2=C(\Nc1ccc(N(C)C(=O)CN2CCN(C)CC2)cc1)c1ccccc1` [Nintedanib] has a drug sensitivity score [1] of 1.3, a drug sensitivity score [2] of 8.3 and a drug sensitivity score [3] of 0.3.

For `C[C@@H](Nc1cc(F)cc(F)c1)c1cc(C(=O)N(C)C)cc2c(=O)cc(N3CCOCC3)oc12` [AZD-8186], the drug sensitivity score [1] was 0, the drug sensitivity score [2] was 1.4 and the drug sensitivity score [3] was 0.

Compound `CC(C)(C)c1cc(NC(=O)Nc2ccc(-c3cn4c(n3)sc3cc(OCCN5CCOCC5)ccc34)cc2)no1` [Quizartinib] has a drug sensitivity score [1] of 3, a drug sensitivity score [2] of 3.9 and a drug sensitivity score [3] of 3.3.

In the case of `Cc1nc2cccc(N)c2c(=O)n1C1CCC(=O)NC1=O` (stereo not given) [CC122], the drug sensitivity score [1] is reported as 0, the drug sensitivity score [2] is reported as 0 and the drug sensitivity score [3] is reported as 0.

Work on `CS(=O)(=O)N1CCN(Cc2cc3nc(-c4cccc5[nH]ncc45)nc(N4CCOCC4)c3s2)CC1` [Pictilisib] yielded a drug sensitivity score [1] of 8.4, a drug sensitivity score [2] of 14.4 and a drug sensitivity score [3] of 6.9.

With `O=S(=O)(c1cccc2c(O)nccc12)N1CCCNCC1` [Hydroxyfasudil] the drug sensitivity score [1] was 0, the drug sensitivity score [2] was 0 and the drug sensitivity score [3] was 0.

Compound `CC[C@H](C)C(=O)O[C@H]1C[C@@H](C)C=C2C=C[C@H](C)[C@H](CC[C@@H]3C[C@@H](O)CC(=O)O3)[C@H]21` [Lovastatin] has a drug sensitivity score [1] of 0, a drug sensitivity score [2] of 0 and a drug sensitivity score [3] of 0.

`Nc1cc(F)ccc1NC(=O)/C=C/c1cnn(C/C=C/c2ccccc2)c1` [RGFP966] gave a drug sensitivity score [1] of 0, a drug sensitivity score [2] of 1 and a drug sensitivity score [3] of 0.

`CNC(=O)c1cc(Oc2ccc(NC(=O)Nc3ccc(Cl)c(C(F)(F)F)c3)cc2)ccn1` [Sorafenib] gave a drug sensitivity score [1] of 0, a drug sensitivity score [2] of 0 and a drug sensitivity score [3] of 0.
